Laboratory results from patent publication US8110654B2, “T cell epitope peptides of ovarian cancer anti-idiotypic antibody 6B11 and use thereof” (Peking University People;s Hospital, priority 2006, dated 2012).

Test system: anti-idiotype antibody 6B11-CTLs (reacting cells)
Test: BrdU ELISA cell proliferation assay, 6B11-CTLs stimulated by loaded DCs
Assay type: cell-based, human
Conditions: for proliferation after blocking by MHC class II antibodies: anti-human MHC class II antibodies 1:20 dilution; for proliferation of reacting cells 6B11-CTLs: stimulating DCs loaded with peptide 30 μg/ml or 6B11 40 μg/ml, 120 hours, BrdU, A450
Procedure: Peripheral blood was drawn from HLA-A2 healthy human subjects. After EDTA anti-coagulation treatment, peripheral blood monocytes were isolated using Ficoll lymphocyte isolation 1×10^7 monocytes/well and AIM-V culture medium (containing 5% human AB serum) was added to 1 ml. The cells were incubated at 37° C. under 5% CO2 for 2 hours. Non-adherent cells were drawn and removed as lymphocytes and stored in liquid nitrogen for further use. The adherent cells were monocytes.
The monocytes isolated from said 6-well plates were added with 2 ml AIM-V culture medium (containing 5% human AB serum)/well. Recombinant human granulocyte-macrophage colony-stimulating factor (rh GM-CSF) and recombinant human interleukin-4 (rh IL-4) were added simultaneously both to a final concentration of 1000 U/ml, for induced incubation. On Day 4, 1 ml AIM-V culture medium (containing 5% human AB serum) was supplemented, and rh GM-CSF and rh IL-4 of the same concentration as mentioned above were also supplemented. On Day 6, 1 ml AIM-V culture medium (containing 5% human AB serum) was supplemented again. At the same time, recombinant human tumor necrosis factor-α (rh TNF-α), recombinant human α-interferon (rh IFN-α) and recombinant human interleukin-6 (rh IL-6) were added, all to a final concentration of 1000 U/ml, and prostaglandin E2 (PGE2) was added to a final concentration of 1 μg/ml. Co-incubation lasted 24 hours for inducing mature DCs.
On Day 4 during incubation of DCs, the culture medium, rh GM-CSF and rh IL-4 were supplemented. At the same time, anti-idiotype antibody 6B11 was added to a final concentration of 40 μg/ml for loading. The loaded cells were stored as stimulating cells for further use.
Mature DCs induced were harvested, washed and adjusted to a concentration of 1×10^6 cells/ml. Six CDR peptides (SEQ ID NOs: 1-6, see Table 1, artificially synthesized) in a final concentration of 30 μg/ml respectively, or each peptide of 30 μg/ml together with keyhole limpet hemocyanin (KLH) of 5 μg/ml were added for loading. The loaded cells were stored as stimulating cells for further use.
The freeze-stored autologous lymphocytes were stimulated by DCs loaded with anti-idiotype antibody 6B11 (anti-Id DCs), to obtain CTLs specific to anti-idiotype antibody 6B11 (6B11-CTLs). One period consists of 7 days. On Day 3 of every period, 10 U/ml recombinant human interleukin-2 (rh IL-2) was supplemented. Finally, anti-idiotype antibody 6B11-CTLs were obtained after a one- or three-period stimulation.
All the CDR peptides of anti-idiotype antibody 6B11 (6 peptides) were synthesized artificially. The peptides were screened for Th epitope peptides by cell proliferation assay. Anti-idiotype antibody 6B11-CTLs stimulated for one period were used as reacting cells. DCs loaded with anti-idiotype antibodies and peptides respectively were used as stimulating cells. The reacting cells and the stimulating cells (in the ratio of 10:1) were co-incubated at 37° C. under 5% CO2 for 120 hours and then subject to BrdU ELISA cell proliferation assay. Each well contained 100 μl AIM-V culture medium and 1×10^5 anti-idiotype antibody 6B11-CTLs. Within the last 2 hours during stimulation, 10 μl BrdU labeling solution was added into each well and the fluid in the wells was removed. The cells were dried at 60° C. for 1 hour. 200 μl of FixDenat solution was added into each well. The reaction continued for 30 minutes at 37° C. for fixing DNA in the lymphocytes. Finally, 100 μl BrdU monoclonal antibody was added into each well for 90 minutes. The absorption value at 450 nm was read by an automatic microplate reader after substrate chromogenic reaction for detecting the proliferation of the cells. The group of DCs without loading and the group of phytohaemagglutinin (PHA) were used as negative and positive control respectively. […] Other peptides could not stimulate the proliferation of the reacting cells. […]

Sequence	proliferation after blocking by MHC class II antibodies	proliferation of reacting cells 6B11-CTLs
SQSTHFPYT (VL CDR3 region peptide)	could not be blocked	could stimulate the proliferation
IALITTKIAWYFDV (VH CDR3 region peptide) [VH CDR3 peptide]	could be blocked mostly	could stimulate the proliferation
